Measured values from patent US20070128217A1 (priority 2003, published 2007).

How the values were obtained:
[1] = test system: control sera (pooled serum of ten healthy LUMC hospital workers; commercial negative donor pooled serum from the Dutch bloodbank); assay type: binding, human; parameters: Binding of Control serum LUMC to linear peptides / Binding of Control serum Blood-bank to linear peptides / Binding of Control serum LUMC to looped peptides / Binding of Control Serum Blood-Bank to Looped peptides / Binding of Control serum LUMC to linear peptides of the protein M of SARS-CoV Urbani / Binding of Control serum Blood-bank to linear peptides of the protein M of SARS-CoV Urbani / Binding of Control serum LUMC to looped peptides of the protein M of SARS-CoV Urbani / Binding of Control Serum Blood-Bank to Looped peptides of the protein M of SARS-CoV Urbani: unit not given here
[2] = test system: antibodies in sera from SARS patients (sera 1a, 1b, 2, 6, 37, 62, London, SARS-yellow, SARS-green); assay type: binding, human; parameters: Binding of serum 6 to linear peptides of protein X1 of SARS-CoV Urbani / Binding of serum 37 to linear peptides of protein X1 of SARS-CoV Urbani / Binding of serum 6 to looped/cyclic peptide (PEPSCAN-ELISA) / Binding of serum 37 to looped/cyclic peptide (PEPSCAN-ELISA) / Binding of serum 37 to looped/cyclic peptides of protein X1 of SARS-CoV Urbani / Binding of serum 6 to linear peptides of protein X2 / Binding of serum 37 to linear peptides of protein X2 / Binding of serum 37 to looped/cyclic peptides of protein X2 of SARS-CoV Urbani / Binding of serum 6 to linear peptides of protein M of SARS-CoV Urbani / Binding of serum 37 to linear peptides of protein M of SARS-CoV Urbani / Binding of serum 6 to looped/cyclic peptides of protein M of SARS-CoV Urbani / Binding of serum 37 to looped/cyclic peptides of protein M of SARS-CoV Urbani / Binding of serum 6 to linear peptides of protein X3 of SARS-CoV Urbani / Binding of serum 37 to linear peptides of protein X3 of SARS-CoV Urbani / Binding of serum 37 to looped/cyclic peptides of protein X3 of SARS-CoV Urbani / Binding of serum 6 to linear peptides of protein X4 of SARS-CoV Urbani / Binding of serum 37 to linear peptides of protein X4 of SARS-CoV Urbani / Binding of serum 37 to looped/cyclic peptides of protein X4 of SARS-CoV Urbani / Binding of serum 6 to linear peptides of protein X5 of SARS-CoV Urbani / Binding of serum 37 to linear peptides of protein X5 of SARS-CoV Urbani / Binding of serum 37 to looped/cyclic peptides of protein X5 of SARS-CoV Urbani / Binding of serum 6 to linear peptides of protein N of SARS-CoV Urbani / Binding of serum 37 to linear peptides of protein N of SARS-CoV Urbani / Binding of serum 6 to linear peptide (PEPSCAN-ELISA) / Binding of serum 1a to looped/cyclic peptides of protein N of SARS-CoV Urbani / Binding of serum 1b to looped/cyclic peptides of protein N of SARS-CoV Urbani / Binding of serum 2 to looped/cyclic peptides of protein N of SARS-CoV Urbani / Binding of serum 6 to looped/cyclic peptides of protein N of SARS-CoV Urbani / Binding of serum 37 to looped/cyclic peptides of protein N of SARS-CoV Urbani / Binding of serum 62 to looped/cyclic peptides of protein N of SARS-CoV Urbani / Binding of serum London to looped/cyclic peptides of protein N of SARS-CoV Urbani / Binding of serum SARS-green to looped/cyclic peptides of protein N of SARS-CoV Urbani: unit not given here
[3] = test system: rabbit serum obtained by immunizing a rabbit with the SARS-CoV strain Frankfurt 1; assay type: binding; parameters: Binding of a rabbit serum to linear peptides / Binding of a rabbit serum to looped peptides / Rabbit serum linear peptides / Rabbit serum looped peptides / Binding of a rabbit serum to linear peptides of protein N of SARS-CoV Urbani (Rabbit serum linear peptides) / Binding of a rabbit serum to looped/cyclic peptides of protein N of SARS-CoV Urbani (Rabbit serum looped peptides): unit not given here
[4] = test system: recombinant human anti-SARS-CoV antibody 03-018; assay type: binding; parameters: Binding of antibody 03-018 to linear peptides of the N protein of SARS-CoV Urbani / Binding of antibody 03-018 to looped/cyclic peptides of the N protein of SARS-CoV Urbani: unit not given here

Sequence	Binding of serum 1a to linear peptides of protein N of SARS-CoV Urbani [2]	Binding of serum 1a to looped/cyclic peptides of protein N of SARS-CoV Urbani [2]	Binding of serum 1b to linear peptides of protein N of SARS-CoV Urbani [2]	Binding of serum 1b to looped/cyclic peptides of protein N of SARS-CoV Urbani [2]	Binding of serum 2 to linear peptides of protein N of SARS-CoV Urbani [2]	Binding of serum 2 to looped/cyclic peptides of protein N of SARS-CoV Urbani [2]	Binding of serum 6 to linear peptides of protein N of SARS-CoV Urbani [2]	Binding of serum 6 to looped/cyclic peptides of protein N of SARS-CoV Urbani [2]	Binding of serum 37 to linear peptides of protein N of SARS-CoV Urbani [2]	Binding of serum 37 to looped/cyclic peptides of protein N of SARS-CoV Urbani [2]	Binding of serum 62 to linear peptides of protein N of SARS-CoV Urbani [2]	Binding of serum 62 to looped/cyclic peptides of protein N of SARS-CoV Urbani [2]	Binding of serum London to linear peptides of protein N of SARS-CoV Urbani [2]	Binding of serum London to looped/cyclic peptides of protein N of SARS-CoV Urbani [2]	Binding of serum SARS-green to linear peptides of protein N of SARS-CoV Urbani [2]	Binding of serum SARS-green to looped/cyclic peptides of protein N of SARS-CoV Urbani [2]	Binding of serum SARS-yellow to linear peptides of protein N of SARS-CoV Urbani [2]	Binding of serum SARS-yellow to looped/cyclic peptides of protein N of SARS-CoV Urbani [2]	Binding of a rabbit serum to linear peptides of protein N of SARS-CoV Urbani (Rabbit serum linear peptides) [3]	Binding of a rabbit serum to looped/cyclic peptides of protein N of SARS-CoV Urbani (Rabbit serum looped peptides) [3]	also measured
TDSTDNNQNGGRNGA	0.3	0.4	0.2	0.3	0.2	0.6	0.3	0.3	1.0	0.7	0.8	0.3	0.6	0.6	1.0	0.8	0.7	0.7	0.1	0.2	Binding of Control Serum Blood-Bank to Looped peptides [1]: 0.7; Binding of Control serum Blood-bank to linear peptides [1]: 1.1; Binding of Control serum LUMC to linear peptides [1]: 0.8; Binding of Control serum LUMC to looped peptides [1]: 0.8; Binding of antibody 03-018 to linear peptides of the N protein of SARS-CoV Urbani [4]: 0.2; Binding of antibody 03-018 to looped/cyclic peptides of the N protein of SARS-CoV Urbani [4]: 0.2
TEGALNTPKDHIGTR	0.2	0.3	0.1	0.2	0.2	0.5	0.2	0.4	0.7	0.5	0.7	0.6	0.5	0.4	0.6	0.6	0.6	0.4	0.2	0.0	Binding of Control Serum Blood-Bank to Looped peptides [1]: 0.7; Binding of Control serum Blood-bank to linear peptides [1]: 1.0; Binding of Control serum LUMC to linear peptides [1]: 0.9; Binding of Control serum LUMC to looped peptides [1]: 0.7; Binding of antibody 03-018 to linear peptides of the N protein of SARS-CoV Urbani [4]: 0.2; Binding of antibody 03-018 to looped/cyclic peptides of the N protein of SARS-CoV Urbani [4]: 0.3
TEPKKDKKKKTDEAQ	0.2	0.2	0.1	0.1	2.5	1.9	0.2	0.1	0.7	0.4	0.7	0.3	0.6	0.3	0.5	0.0	0.6	0.2	0.2	0.3	Control Serum Blood-Bank Looped peptides [1]: 0.5; Control serum Blood-bank linear peptides [1]: 0.7; Control serum LUMC linear peptides [1]: 0.8; Control serum LUMC looped peptides [1]: 0.4; Binding of antibody 03-018 to linear peptides of the N protein of SARS-CoV Urbani [4]: 0.1; Binding of antibody 03-018 to looped/cyclic peptides of the N protein of SARS-CoV Urbani [4]: 0.2
